The assay deals with ARS mutant (ARS-Mut) with four base mutations (U28G, G42C, U47C and U51C). It counts as binding.

With `Nc1ncnc2nc[nH]c12` [adenine], the “change versus free ARS-Mut” value was “not much different” and the td was 0.50 ms.

Values taken from US12560588B2, “High-efficiency screening method for RNA-targeting drugs using nanopores” (KOREA RESEARCH INSTITUTE OF BIOSCIENCE AND BIOTECHNOLOGY, priority 2020, dated 2026).
